Measurements taken from patent US11974983B2 (Duke University, priority 2018, dated 2024).
Read-outs that look alike come from different tables or passages of the source.

Tests used:
[1] = cited from earlier work
MCF7 Y537S = assay: Mammary intraductal (MIND) xenograft model, MCF7 Y537S; assay type: in vivo, NSG mice
Protocol: MCF7 cells were engineered with CRISPR/Cas9 to express ERα with Y537S and D538G mutations. To mimic the natural environment of infiltrating ductal ERα^+ breast cancers, NSG™ mice were injected, via the nipple in the inguinal mammary glands, with three MCF7 cell variants: wild type MCF7 cells (MCF7 WT), MCF7 cells expressing Y537S mutant ERα (MCF7 Y537S), and MCF7 cells expressing D538G mutant ERα (MCF7 D538G), respectively. Prior to injection, the MCF7 cells were labeled with a luciferase reporter to monitor tumor growth in vivo using a Xenogen IVIS imager. […] FIG. 4 summarizes the experimental design.

[2] = system: MCF7 cells stably expressing DOX-inducible ER D538G; assay: Dose response cell counting in MCF7 cells with DOX-inducible HA-tagged ER D538G; assay type: cell-based; conditions: for IC50: Homo sapiens, MCF7, 120 h, allele D538G, cell count day 5, full medium
Protocol: MCF7 estrogen receptor alpha positive (ER^+) breast cancer cells were engineered to stably express doxycycline (DOX)-inducible hemagglutinin (HA)-tagged full length ER with ligand binding domain mutations Y537S and D538G. The introduction and expression of the mutants were confirmed by Sanger sequencing, RNA-sequencing, and western blot.
The dose response studies were performed in full medium conditions. Cells were treated with DOX for the induction of HA-tagged mutated ER or with vehicle as control, and plated in triplicate. Subsequently, on day 5, cell counting was performed using the Celigo instrument with Hoechst dye staining to detect nucleated live cells and propidium iodide to quantify dead cells.
IC50 values were calculated using PRISM.

[3] = system: ER+ HER2− advanced or metastatic breast cancer; assay: Phase 2 clinical study, lasofoxifene versus fulvestrant; assay type: in vivo, postmenopausal women; conditions: 5 mg once daily oral
Protocol: The design of the study is outlined in FIG. 26. The study is an open label, randomized, multicenter study. Full recruitment into study occurs within twelve to sixteen months, with another twelve months of follow up before the primary outcome measure is analyzed. Screening tests are performed within thirty days of enrollment. Subjects are treated until documented disease progression.
As a comparison, fulvestrant is given to the breast cancer patient at 500 mg by intramuscular injection on day 1, day 15, and day 29, and then once every month.
The inclusion criteria include: • 1. Postmenopausal women with: a. locally advanced or metastatic breast cancer with either measurable or non-measurable lesions, b. progression on an AI in combination with a CDK 4/6 inhibitor for advanced breast cancer; • 2. If possible, a biopsy of metastatic breast cancer tissue will be obtained to confirm ER^+ and HER2^− disease; • 3. At least one or more of the following ESR1 mutations: Y537S, Y537N, Y537C, D538G, L536, E380Q, or S463P assessed from […] in blood; • 4. Received one chemotherapy regimen in the neo-adjuvant or adjuvant setting prior to entry into the trial; • 5. ECOG performance score of 0 or 1.

[4] = Cmax in blood at doses used in prior clinical trials; assay type: in vivo; conditions: dose 1 mg; read-out: Converted (M) Cmax
From the text: See Maximov et al., Current Clinical Pharmacology 8(2): 135-155 (2013). […] See Assessment Report for Fablyn, 2009 (EMA). […] See Gardner et al., J Clin Pharmacol 46(1): 52-58 (2006).

ERα Y537S mutant LBD = target: T1, ERα Y537S mutant LBD (Homo sapiens, UniProt P03372, C381S/C417S/C530S/Y537S); assay: X-ray crystal structure of ligand-bound ERα Y537S mutant LBD
T1 construct: 6x-His-TEV (N, cleaved yes); made in house; host or cells: E. coli BL21(DE3)
T1 sequence (P03372 311-547 C381S/C417S/C530S/Y537S limits assumed): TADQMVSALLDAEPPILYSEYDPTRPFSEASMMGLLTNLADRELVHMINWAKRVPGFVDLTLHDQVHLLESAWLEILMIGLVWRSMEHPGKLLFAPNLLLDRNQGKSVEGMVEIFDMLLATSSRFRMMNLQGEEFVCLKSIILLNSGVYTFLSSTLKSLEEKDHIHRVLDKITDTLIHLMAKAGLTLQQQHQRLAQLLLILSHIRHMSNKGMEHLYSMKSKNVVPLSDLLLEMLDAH
Protocol: 6x-His-TEV-Estrogen receptor alpha ligand binding domain containing C381S, C417S, C530S with L536S or Y537S mutations were expressed in E. coli BL21(DE3). The L536S mutant stabilizes the wild-type antagonist conformation and Y537S is an activating somatic mutation that has been identified in patients with acquired hormone resistance. Both proteins were purified using Ni-NTA resin, the 6x-His tag was cleaved using tev protease, removed using Ni-NTA resin, and a final purification was performed by passing the protein over a size exclusion column. The main peak was concentrated to 10 mg/mL and flash frozen.
Hanging drop vapor diffusion was used to crystallize the complexes. The L536S-Laso (lasofoxifene-bound ERα wild-type LBD) complex formed clear hexagonal crystals in 25% PEG 8,000, 200 mM MgCl2, HEPES pH 7.5 after two weeks at room temperature. The Y537S-Laso (lasofoxifene-bound ERα Y537S mutant LBD) complex formed rectangular crystals in 20% PEG 3.35K, 200 mM MgCl2, HEPES pH 6.5 after one week at room temperature.
Crystals were cryo-protected in 25% glycerol in mother liquor and flash frozen in liquid nitrogen. All x-ray crystallographic data sets were collected at the Advanced Photon Source. The L536S-Laso complex diffracted to 1.8 Å and the Y537S-Laso complex diffracted to 2.1 Å by cc^1/2 over 50%. Phaser was used for molecular replacement with 5UFX as the model. […]

[5] = MCF7 Y537S, 5 mg/kg and 10 mg/kg, after 70 days

## Oc1ccc2c(c1)CC[C@H](c1ccccc1)[C@@H]2c1ccc(OCCN2CCCC2)cc1 [Lasofoxifene, lasofoxifene]
[1]; PEARL trial, post-menopausal women with osteoporosis
  risk of breast cancer: reduced the risk of breast cancer
[1]; double-blind, placebo-controlled, randomized PEARL trial
  risk of osteoporosis: reduce the risk of osteoporosis
MCF7 Y537S; MCF7 Y537S mice, 10 mg/kg five times per week subcutaneous
  tumor growth monitored by total flux: most significantly inhibited
MCF7 Y537S; [5]
  liver metastasis, compared to fulvestrant: significantly more effective in reducing liver metastasis
  tumor weight, compared to fulvestrant: significantly more effective
MCF7 Y537S; MCF7 Y537S, 10 mg/kg, after 70 days of treatment
  tumor growth measured by tumor weight, compared to vehicle control: significantly inhibited
MCF7 Y537S; MCF7 Y537S, all tested doses (1, 5, 10 mg/kg), after 70 days
  tumor growth measured by tumor weight: significantly inhibited the growth of tumors at all tested doses
MCF7 Y537S; MCF7 Y537S, lasofoxifene 5 mg/kg and 10 mg/kg, after 70 days
  lung metastasis: significantly reduce lung metastasis
[2]; D538G stable transfectants, 10^−12 M to 10^−6 M
  anti-estrogenic activity, cell killing with increasing dose titration: kill the stably transfected cells
[2]; DOX-induced mutant ER, read-out: IC50 DOX (ESR mutation)
  IC50: 1 nM
[2]; no DOX, read-out: IC50 No DOX (wt only)
  IC50: 0.1 nM
[3]; D538G mutant patient population
  median PFS compared to fulvestrant: increases the median PFS
[3]; E380Q mutant patient population
  median PFS compared to fulvestrant: increases the median PFS
[3]; ESR1 mutation population
  median PFS compared to fulvestrant: increases the median PFS
[3]; L536 mutant patient population
  median PFS compared to fulvestrant: increases the median PFS
[3]; S463P mutant patient population
  median PFS compared to fulvestrant: increases the median PFS
[3]; Y537C mutant patient population
  median PFS compared to fulvestrant: increases the median PFS
[3]; Y537N mutant patient population
  median PFS compared to fulvestrant: increases the median PFS
[3]; Y537S mutant patient population
  median PFS compared to fulvestrant: increases the median PFS
[4]
  Cmax: 1.55e-08 M
ERα Y537S mutant LBD
  loop between helix 11 and helix 12 in the crystal structure: absent
